US20240052305A1, “CHEMICAL INDUCTION METHOD FOR PHOTORECEPTOR NEURON CELLS” (IREGENE THERAPEUTICS LTD, priority 2020, published 2024)
“Also recorded” adds a separate entry of the source.

Assays:
photoreceptor cells = test: Cyquant cell viability assay during induction of photoreceptor cells; format: cell-based, human; details: Cyquant test, FIGS. 6e-6g
Source text: The Cyquant test was also used to detect the effect of progesterone, putrescine and Optiferrin on cell viability, so as to study the effects of different concentrations of progesterone, putrescine and Optiferrin on the physiological state of cells during the induction of photoreceptor cells.

[1] = system: photoreceptor neuron cells; test: Screening test of vitamin B12 concentration (Q-PCR of photoreceptor neuron cells); format: cell-based, human
Method: The screening test of vitamin B12 concentration was carried out with reference to Example 2.3, and the expression difference of photoreceptor neuron cells obtained by using different concentrations of vitamin B12 was compared. See Table 2 and Table 4 for the details of primers used. […] Therefore, the concentration of vitamin B12 used in the present invention was the optimal concentration.

[2] = system: human pluripotent stem cells; test: Cyquant cell viability assay during ectoderm induction, long-term culture; format: cell-based; details: for number of cells induced versus concentration: Cyquant test, FIGS. 6c-6d
Method: A screening culture system was prepared by using different concentration gradients of insulin or vitamin C while maintaining the optimal concentration of other components. Ectoderm induction was performed according to the method in Example 2.1. The cell viability was quantitatively detected by Cyquant assay to study the effects of insulin or vitamin C on the physiological state of cells during long-term cell culture. A 96-well opaque cell culture plate was coated, and then the cells are inoculated at 5×10^4 cells per well, wherein parallel triplicates were set up (the average of the three groups was calculated as the data). The steps in Example 2.1 were repeated with the culture conditions of 37° C., 5% CO2. Samples were taken at day 1, day 5, day 10 and day 20, respectively, and the cell viability detection was carried out by CyQuant Kit (Invitrogen, X12223) according to the instruction manual, and data were read by SpectraMax i3 Multi-Mode Microplate Reader (VWR, ID3-STD). […] Therefore, in combination with cost factors, the insulin or vitamin C in the basal medium of the present invention was the optimal concentration.

[3] = Osmotic pressure of the culture system by freezing point osmometer; format: physicochemical; parameters: osmotic pressure of the culture system: dose or concentration left out as unconfirmed
Method: A screening culture system was prepared by using different concentration gradients of sodium chloride while maintaining the optimal concentration of other components. The effect of different concentrations of sodium chloride on the osmotic pressure of culture system was detected by using an automatic freezing point osmometer (FM-8P, Shanghai Medical University Instrument Co., Ltd.), and specific operations were performed according to the product manual (FM-8P, Shanghai Medical University Instrument Co., Ltd.).

ectoderm cells [4] = test: Differentiation of the ectoderm cells into neural stem cells (neural rosettes, immunofluorescence, Q-PCR); format: cell-based, human
Method: Ectoderm cells could be further cultured to form neural stem cells. In order to identify this ability of ectoderm cells, the ectoderm cells obtained in Example 2.1 were further cultured in vitro by using a NouvNeu-basal base medium supplemented with 7.5 uM LY2157299 and 0.5-20 uM JW55 (with an optimal concentration of 5 uM) until a neural rosette-like structure was formed. The LSB induction method was used as a control. […]
Transcription changes of different marker genes during induction from ectoderm cells to neural stem cells were detected by Q-PCR. […] SYBR Premix Ex Taq (TaKaRa) and Thermal Cycler Dice Real Time System (TaKaRa) were used for labeling and reaction by Quantitative PCR, and beta-Actin was used as internal control. All data were analyzed by delta-Ct method. […]

[5] = system: human pluripotent stem cells; test: Chemical induction of ectoderm cells from pluripotent stem cells with different concentrations of LY2157299 (morphology, Q-PCR); format: cell-based
Method: The ectoderm cell induction medium of the present invention was obtained by supplementing the NouvNeu-basal base medium with 55 nM-25 uM LY2157299 (Selleck) (with an optimal concentration of 7.5 uM) (preferably 100 nM, 300 nM, 500 nM, 700 nM, 900 nM, 1 uM, 2.5 uM, 5 uM, 7.5 uM, 10 uM, 12.5 uM, 15 uM, 17.5 uM, 20 uM or 22 uM). An induction method using said ectoderm cell induction medium was hereinafter referred to as a LY induction method.
Ectoderm cells were derived from human pluripotent stem cells, including embryogenic pluripotent stem cells, such as H9 cell line and human induced pluripotent stem cells. Human induced pluripotent stem cells were obtained by reprogramming from CD34+ cells according to “Reprogrammed culture medium and culture method of reprogrammed induced multipotential stem cell” (ZL 201910050800.7). In the present invention, “induced pluripotent stem cells” and “pluripotent stem cells” were used interchangeably.
During the induction of ectoderm cells, a 6-well culture plate was coated by using 50 ug/ml polylysine (SIGMA, P6407), and incubated in an incubator at 37° C. for more than 3 hours; then further coated by 5 ug/ml laminin (Laminin, I2020, SIGMA ALDRICH), and incubated in an incubator at 37° C. for more than 3 hours after plating. After the pluripotent stem cells reached 70% coverage, they were digested with EDTA at 37° C. for 5 min, and the cell digestion was terminated with DMEM. After washing and centrifugation, the cells were re-plated in the T25 culture plate at 2×10^5 cells per flask. The neural stem cell induction medium of the present invention was used for induction, and replaced with fresh induction medium every day until lamellar ectoderm cells were formed.
The effect of different concentrations of LY2157299 on the formation of ectoderm cells was detected by Q-PCR. The ectoderm cells obtained from the induced pluripotent stem cells in Example 2 by using different concentrations of LY2157299 in the LY induction method and LSB induction method were respectively extracted with RNeasy Mini or Micro Kit (QIAGEN) for total RNA, and cDNA was synthesized by […] RNA via SuperScript III First-Strand Synthesis System (Invitrogen). SYBR Premix Ex Taq (TaKaRa) and Thermal Cycler Dice Real Time System (TaKaRa) were used for labeling and reaction by Quantitative PCR, and beta-Actin was used as internal control. All data were analyzed by delta-Ct method. Triplicates were used for each group of experiments, and ANOVA was performed.

ectoderm cells [6] = test: Differentiation of ectoderm cells into photoreceptor neuron cells with AM580 (morphology, Q-PCR, immunofluorescence); format: cell-based, human
Method: The ectoderm cells obtained by the NouvNeu system in Example 2 were subjected to directed differentiation in NouvNeu medium. For differentiation, a 6-well culture plate was coated by 50 ug/ml poly-lysine (SIGMA, P6407), incubated in an incubator at 37° C. for more than 3 hours until cells were seeded.
The photoreceptor neuron cell induction medium of the present invention was obtained by supplementing the NouvNeu-basal base medium with 55 nM-25 uM LY2157299 (with an optimal concentration of 7.5 uM) (preferably 100 nM, 300 nM, 500 nM, 700 nM, 900 nM, 1 uM, 2.5 uM, 5 uM, 7.5 uM, 10 uM, 12.5 uM, 15 uM, 17.5 uM, 20 uM or 22 uM) and 0.05-0.95 uM AM580 (Selleck) (with an optimal concentration of 0.5 uM) (preferably 0.08 uM, 0.09 uM, 0.1 uM, 0.2 uM, 0.3 uM, 0.5 uM, 0.6 uM, 0.7 uM, 0.8 uM, 0.9 uM). The cells were cultured until photoreceptor neuron cell were formed. A control experiment was performed by adding 0.5 uM retinoic acid to the NouvNeu medium, hereinafter referred to as RA.
The screening test of AM580 concentration was carried out with reference to Example 2.3, and the expression difference of photoreceptor neuron cells obtained by using different concentrations of AM580 in the AM580 induction method and the LSB induction method was compared. See Table 2 and Table 4 for the details of primers used. […] In combination with the effect of AM580 on the expression of photoreceptor neuron-specific genes shown in FIG. 4, it could be concluded that the concentrations of AM580 used in the present invention are within the range of optimal concentration.
The medium was replaced with fresh medium every 3 days until day 21. The conditions for culture were at 37° C., 5% CO2 (Panasonic, MCO-18AC). After the induction was completed, the samples in experimental group and control group were respectively identified by immunofluorescence staining as follows: cells were fixed with 4% paraformaldehyde at room temperature for 40 minutes, washed twice with DPBS buffer; then permeabilized with 0.1% Triton X-100 for 5 minutes, washed twice with DPBS buffer; then incubated overnight at 4° C. with DPBS buffer containing 10% horse serum and 0.1% Triton X-100; added with a primary antibody diluted in DPBS buffer containing 2% horse serum and 0.1% Triton X-100, incubated at 37° C. for two hours, and washed three times with DPBS buffer, added with a secondary antibody diluted in DPBS buffer containing 2% horse serum and 0.1% Triton X-100, and then photographed.
Transcription changes of different marker genes during induction from ectoderm cells to photoreceptor neuron cells were detected by Q-PCR. The photoreceptor cells obtained by using the present invention and different concentrations of AM580, and the photoreceptor cells obtained by the RA control induction method were respectively extracted with RNeasy Mini or Micro Kit (QIAGEN) for total RNA, and cDNA was synthesized by […] RNA via SuperScript III First-Strand Synthesis System (Invitrogen). SYBR Premix Ex Taq (TaKaRa) and Thermal Cycler Dice Real Time System (TaKaRa) were used for labeling and reaction of Quantitative PCR, and beta-Actin was used as internal control. All data were analyzed by delta-Ct method. Three replicates were used for each group of experiments, and ANOVA was performed.

CC(=O)[C@H]1CC[C@H]2[C@@H]3CCC4=CC(=O)CC[C@]4(C)[C@H]3CC[C@]12C [progesterone]
cell proliferation rate versus concentration (photoreceptor cells): positively correlated

Optiferrin: component of the NouvNeu-basal base medium (SIGMA)
cell proliferation rate versus concentration (photoreceptor cells): positively correlated

vitamin B12
photoreceptor non-specific marker PAX6 versus concentration ([1]; Q-PCR, FIG. 6b): positively correlated | relative expression of PAX6 ([1]; concentration too high): decrease in the relative expression of PAX6

O=C1O[C@H]([C@@H](O)CO)C(O)=C1O [vitamin C, L-ascorbic acid]
number of cells induced versus concentration [2]: positively correlated | number of cells compared with the optimal concentration ([2]; high concentration): not significantly different | state of cells in the late stage of induction ([2]; high concentration): caused the cells to shed in pieces

[Cl-].[Na+] [sodium chloride]
osmotic pressure of the culture system versus concentration ([3]; concentration gradients, FIG. 6a): increased linearly | osmotic pressure of the culture system ([3]; sodium chloride concentration): > 320 mOsm/kg

NCCCCN [putrescine]
cell proliferation rate versus concentration (photoreceptor cells): positively correlated

insulin: component of the NouvNeu-basal base medium
number of cells induced versus concentration [2]: positively correlated | number of cells compared with the optimal concentration ([2]; high concentration): not significantly different

Cc1cccc(-c2nn3c(c2-c2ccnc4ccc(C(N)=O)cc24)CCC3)n1 [LY2157299, 4-(2-(6-methylpyridin-2-yl)-5,6-dihydro-4H-pyrrolo[1,2-b]pyrazol-3-yl) quinoline-6-carboxamide]
expression of neural stem cell markers compared with the control method (ectoderm cells [4]; Q-PCR, FIGS. 1e-1f): slightly increase the expression of neural stem cell markers | neural stem cell markers after formation of neural rosettes (ectoderm cells [4]; immunofluorescence staining, FIGS. 1a-1d): can express neural stem cell markers Pax6 and Nestin | ectoderm markers versus concentration ([5]; Q-PCR, FIG. 2f): positively correlated | apoptotic markers versus concentration ([5]; Q-PCR, FIG. 2g): positively correlated | formation of ectoderm cells (morphology) ([5]; appropriate concentration, FIG. 2d): uniformly differentiated ectoderm cells | formation of ectoderm cells (morphology) ([5]; excessively high concentration, FIG. 2e): promote the differentiation of ectoderm cells into neural cells | cell apoptosis ([5]; high concentration): induced cell apoptosis | optimal concentration of LY2157299 ([5]; induction of ectoderm cells, screening of different concentrations (FIG. 2)): 7.5 µM | formation of ectoderm cells (morphology) ([5]; low concentration, FIG. 2c): differentiation into mixed cell including ectodermal cells; also recorded: the ectoderm could not be completely formed

CC1(C)CCC(C)(C)c2cc(C(=O)Nc3ccc(C(=O)O)cc3)ccc21 [AM580]
marker PAX6 versus concentration (ectoderm cells [6]; Q-PCR, FIG. 3f): positively correlated | apoptotic markers versus concentration (ectoderm cells [6]; Q-PCR, FIG. 3g): positively correlated | expression of photoreceptor cell-specific marker genes (ectoderm cells [6]; Q-PCR, compared with RA control, FIG. 4): could induce the expression of multiple photoreceptor cell-specific marker genes, which was not significantly lower than that of the RA control | morphology of differentiated cells (ectoderm cells [6]; appropriate concentration, FIG. 3d): uniformly differentiated photoreceptor cells with short axons | apoptosis (ectoderm cells [6]; concentration too high): lead to apoptosis | morphology of differentiated cells (ectoderm cells [6]; excessively high concentration, FIG. 3e): results in stress in differentiated cells | protein expression of photoreceptor markers (ectoderm cells [6]; fluorescent immunoassay, FIG. 5): same protein expression patterns with that in the RA control group | optimal concentration of AM580 (ectoderm cells [6]; induction of photoreceptor cells, screening of different concentrations (FIG. 3)): 0.5 µM | morphology of differentiated cells (ectoderm cells [6]; low concentration, FIG. 3c): differentiation into mixed cells including cortical neurons
